In publication PMC8170132, “Kinetics of Abacavir-Induced Remodelling of the Major Histocompatibility Complex Class I Peptide Repertoire” (Frontiers in Immunology, 2021):

Assays:
HLA-B*57:01 [1] = target: T1, HLA-B*57:01 (Homo sapiens, UniProt P01889, D201E/D98Y/E176V/E187L/E204Q/E69M/E70A/G107R/I90N/K202T/L105A/L119I/N104I/N87E/Q89R/Q94S/R106L/R155S/R180L/R86G/S101N/S121V/S35A/S48A/T118I/V36M/Y140S/Y91M); parameters: method as in Illing et al., Nature 2012; conditions: ref Illing et al., Nature 2012, cited from earlier work; for HLA-B*57:01 previous observation by LC-MS/MS, Abacavir treated: abacavir treated cells; for HLA-B*57:01 previous observation by LC-MS/MS, Untreated: untreated cells
HLA-B*57:01 [2] = target: T1, HLA-B*57:01; assay: LC-MRM-MS quantitation of HLA ligands and co-purified abacavir from abacavir treated C1R.B*57:01 cells; assay type: cell-based; conditions: for Linear regression slope: linear regression of LC-MRM-MS peptide abundance over abacavir treatment time; for Abacavir dependence: LC-MRM-MS detection, classification of the peptide based on abacavir dependency; for Category of abacavir impact on peptide abundance in the immunopeptidome: C1R.B*57:01, 35 µM abacavir 0-16 h or constant, linear regression of normalised abundance, three replicates

Row | Sequence | HLA-B*57:01 previous observation by LC-MS/MS, Abacavir treated (HLA-B*57:01 [1]) | HLA-B*57:01 previous observation by LC-MS/MS, Untreated (HLA-B*57:01 [1]) | Linear regression slope (HLA-B*57:01 [2]) | Abacavir dependence (HLA-B*57:01 [2]) | Category of abacavir impact on peptide abundance in the immunopeptidome (HLA-B*57:01 [2])
1 | IYDKFIAQL | + (+ (< 5% FDR)) | + (+ (< 5% FDR)) | -0.0106 | – | –
2 | VTHSVRIGF | + (+ (< 5% FDR)) | + (+ (< 5% FDR)) | -0.0410 | Inhibited | –
3 | LSSPVTKSF | + (+ (< 5% FDR)) | + (+ (< 5% FDR)) | 0.0147 | Minimal | minimally impacted by abacavir
4 | RVDPDVAQHW | + (+ (< 5% FDR)) | + (+ (< 5% FDR)) | 0.0110 | Minimal | –
5 | ASAGNLKPVW | + (+ (< 5% FDR)) | + (+ (< 5% FDR)) | 0.0136 | Minimal | –
6 | ISIHVGQAGVQI | + (+ (< 5% FDR)) | – | 0.0259 | Dependent | –
7 | KVFKLQTSL [non-labelled HLA-B*57:01 ligand] | # (# (> 5% FDR)) | – | 0.0380 | Dependent | Dependent
8 | GSFGKVFLV | + (+ (< 5% FDR)) | – | 0.0515 | Dependent | –
9 | RVDPAKGLFYF [non-labelled HLA-B*57:01 ligand] | + (+ (< 5% FDR)) | + (+ (< 5% FDR)) | -0.0245 | Inhibited | Inhibited
10 | RVLPPSHRVTW | + (+ (< 5% FDR)) | + (+ (< 5% FDR)) | 0.0197 | Minimal | –
11 | NTVELRVKI [non-labelled HLA-B*57:01 ligand] | + (+ (< 5% FDR)) | – | 0.0281 | Dependent | Dependent
12 | ASAIIIQRW | + (+ (< 5% FDR)) | + (+ (< 5% FDR)) | 0.0134 | Minimal | –
13 | FVKKLEHSW | + (+ (< 5% FDR)) | + (+ (< 5% FDR)) | 0.0023 | Minimal | –
14 | YTDNLVRVW [HLA-B*57:01 ligand derived from RACK1] | + (+ (< 5% FDR)) | + (+ (< 5% FDR)) | -0.0088 | Minimal | minimally impacted by abacavir
15 | LTTKLTNTNI [non-labelled HLA-B*57:01 ligand] | + (+ (< 5% FDR)) | – | 0.0544 | Dependent | Dependent
16 | STIRLLTSL | + (+ (< 5% FDR)) | + (+ (< 5% FDR)) | 0.0278 | Facilitated | –
17 | STLHLVLRL | + (+ (< 5% FDR)) | + (+ (< 5% FDR)) | 0.0280 | Dependent | –
18 | HSTDRVVLI | # (# (> 5% FDR)) | – | 0.0350 | Dependent | –

Row | Sequence | HLA-B*57:01 previous observation by LC-MS/MS, Abacavir treated (HLA-B*57:01 [1]) | HLA-B*57:01 previous observation by LC-MS/MS, Untreated (HLA-B*57:01 [1]) | Linear regression slope (HLA-B*57:01 [2]) | Abacavir dependence (HLA-B*57:01 [2]) | Category of abacavir impact on peptide abundance in the immunopeptidome (HLA-B*57:01 [2])
19 | TTWKPLNPNSW | + (+ (< 5% FDR)) | + (+ (< 5% FDR)) | 0.0009 | Minimal | –
20 | TALPLLKQF | + (+ (< 5% FDR)) | + (+ (< 5% FDR)) | -0.0283 | Inhibited | –
21 | KTFIGTVRV | + (+ (< 5% FDR)) | – | 0.0503 | Dependent | –
22 | KTLEGEFSV | + (+ (< 5% FDR)) | – | 0.0463 | Dependent | –
23 | VTTDIQVKV | + (+ (< 5% FDR)) | + (+ (< 5% FDR)) | 0.0428 | Dependent | –
24 | ITAGAHRLW | + (+ (< 5% FDR)) | + (+ (< 5% FDR)) | 0.0136 | Minimal | –
25 | KIADFGWSV | + (+ (< 5% FDR)) | – | 0.0283 | Dependent | –
26 | ATFKGIVRAI [non-labelled HLA-B*57:01 ligand] | + (+ (< 5% FDR)) | – | 0.0504 | Dependent | Dependent
27 | SAAYLPRMW | + (+ (< 5% FDR)) | + (+ (< 5% FDR)) | -0.0194 | Minimal | –
28 | FSHRIYVAY | + (+ (< 5% FDR)) | + (+ (< 5% FDR)) | 0.0098 | Minimal | –
29 | HSMSDPGVSY | + (+ (< 5% FDR)) | + (+ (< 5% FDR)) | 0.0044 | Minimal | –
30 | VTYPAKAKGTFI | + (+ (< 5% FDR)) | – | 0.0340 | Dependent | –
31 | ILDPHVVLL | + (+ (< 5% FDR)) | + (+ (< 5% FDR)) | 0.0062 | – | –
32 | IVFPGSTGHI | + (+ (< 5% FDR)) | – | 0.0377 | Dependent | –
33 | IFDSKVTEI | + (+ (< 5% FDR)) | + (+ (< 5% FDR)) | -0.0096 | – | –
34 | KTAGYPNVNI | + (+ (< 5% FDR)) | # (# (> 5% FDR)) | 0.0509 | Dependent | –
35 | ASSSQIIHI | + (+ (< 5% FDR)) | – | 0.0446 | Dependent | –
